Earlier results, collected in patent US8846104B2, “Pharmaceutical compositions for the deterrence and/or prevention of abuse” (priority 2006, dated 2014).

Test system: mu over delta sites

O=C1CC[C@@]2(O)[C@H]3Cc4ccc(O)c5c4[C@@]2(CCN3CC2CC2)[C@H]1O5 [naltrexone]
blocking action, site preference: strong preferential blocking action against mu over delta sites
